# Measured values taken from PubChem BioAssay AID1963445 (Molecular Pharmacology Branch, DTP, NCI, 2024).
# Several values for one entry are separate records, joined by “and”; a condition that tells them apart may be missing. Equal values may be shown once.
# Test system: MCF7 complex spheroid growth, % test/control
# Assay: Anticancer human tumor MCF7 cell line growth inhibition [Asc];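 note: spheroids exposed to compounds for 7 days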;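 for viability, T/C: 100% = DMSO vehicle control wells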
# Settings: for viability, T/C: stronger effect = lower value
# Summary of the method: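 Tumor cells were grown as multicellular spheroids with stromal HUVEC and mesenchymal stem cells and treated singly or in combination. Concentrations fell in half-log steps from the clinical Cmax, or from 10 microM where none was known.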
# [1] = curve of first compound, second compound 0.0316 µM
# [2] = curve of first compound, second compound 0.1 µM
# [3] = curve of first compound, second compound 0.316 µM
# [4] = curve of first compound, second compound 1 µM
# [5] = second compound 0.0316 µM, first compound 0.000949 µM
# [6] = second compound 0.0316 µM, first compound 0.003 µM
# [7] = second compound 0.0316 µM, first compound 0.00949 µM
# [8] = second compound 0.0316 µM, first compound 0.03 µM
# [9] = second compound 0.0316 µM, first compound 0.0949 µM
# [10] = second compound 0.0316 µM, first compound 0.3 µM
# [11] = second compound 0.1 µM, first compound 0.000949 µM
# [12] = second compound 0.1 µM, first compound 0.003 µM
# [13] = second compound 0.1 µM, first compound 0.00949 µM
# [14] = second compound 0.1 µM, first compound 0.03 µM
# [15] = second compound 0.1 µM, first compound 0.0949 µM
# [16] = second compound 0.1 µM, first compound 0.3 µM
# [17] = second compound 0.316 µM, first compound 0.000949 µM
# [18] = second compound 0.316 µM, first compound 0.003 µM
# [19] = second compound 0.316 µM, first compound 0.00949 µM
# [20] = second compound 0.316 µM, first compound 0.03 µM
# [21] = second compound 0.316 µM, first compound 0.0949 µM
# [22] = second compound 0.316 µM, first compound 0.3 µM
# [23] = second compound 1 µM, first compound 0.000949 µM
# [24] = second compound 1 µM, first compound 0.003 µM
# [25] = second compound 1 µM, first compound 0.00949 µM
# [26] = second compound 1 µM, first compound 0.03 µM
# [27] = second compound 1 µM, first compound 0.0949 µM
# [28] = second compound 1 µM, first compound 0.3 µM
smiles,measurement,setting,value
NC(=O)C(=Cn1cnc(-c2cc(C(F)(F)F)cc(C(F)(F)F)c2)n1)c1cncnc1 + Cc1c(S(C)(=O)=O)c(-c2cc(F)cc(N3CCN(c4ccc(NS(=O)(=O)c5ccc(NC(CCN6CCC(C(=O)OCCCP(=O)(O)O)CC6)CSc6ccccc6)c(S(=O)(=O)C(F)(F)F)c5)cc4)CC3)c2)c(-c2ccc(Cl)cc2)n1C(C)C,IC50,[1],76.6 nM
same,IC50,[2],51.6 nM
same,IC50,[3],35.1 nM
same,IC50,[4],39.8 nM
same,IC50,"curve of first compound, second compound 3.16 µM",27.3 nM
same,IC50,"curve of first compound, second compound 10 µM",62.6 nM
same,"viability, T/C",[5],94.4%
same,"viability, T/C",[6],88%
same,"viability, T/C",[7],89.3%
same,"viability, T/C",[8],89.7%
same,"viability, T/C",[9],40.9%
same,"viability, T/C",[10],16.8%
same,"viability, T/C",[11],87.6%
same,"viability, T/C",[12],82.8%
same,"viability, T/C",[13],81.8%
same,"viability, T/C",[14],76.4%
same,"viability, T/C",[15],20.3%
same,"viability, T/C",[16],15.7%
same,"viability, T/C",[17],90.5%
same,"viability, T/C",[18],87.4%
same,"viability, T/C",[19],70.1%
same,"viability, T/C",[20],60.9%
same,"viability, T/C",[21],19.7%
same,"viability, T/C",[22],16.4%
same,"viability, T/C",[23],89%
same,"viability, T/C",[24],75.8%
same,"viability, T/C",[25],73.8%
same,"viability, T/C",[26],61%
same,"viability, T/C",[27],13.9%
same,"viability, T/C",[28],18.8%
same,"viability, T/C","second compound 3.16 µM, first compound 0.000949 µM",70.4%
same,"viability, T/C","second compound 3.16 µM, first compound 0.003 µM",73.4%
same,"viability, T/C","second compound 3.16 µM, first compound 0.00949 µM",77%
same,"viability, T/C","second compound 3.16 µM, first compound 0.03 µM",47.9%
same,"viability, T/C","second compound 3.16 µM, first compound 0.0949 µM",22.5%
same,"viability, T/C","second compound 3.16 µM, first compound 0.3 µM",18.4%
same,"viability, T/C","second compound 10 µM, first compound 0.000949 µM",121%
same,"viability, T/C","second compound 10 µM, first compound 0.003 µM",131%
same,"viability, T/C","second compound 10 µM, first compound 0.00949 µM",102%
same,"viability, T/C","second compound 10 µM, first compound 0.03 µM",90.6%
same,"viability, T/C","second compound 10 µM, first compound 0.0949 µM",25.5%
same,"viability, T/C","second compound 10 µM, first compound 0.3 µM",16.8%
NC(=O)C(=Cn1cnc(-c2cc(C(F)(F)F)cc(C(F)(F)F)c2)n1)c1cncnc1 + CNC(C)C(=O)NC1CN(S(=O)(=O)c2cccc(S(=O)(=O)N3CCC4CCC(C(=O)NC(c5ccccc5)c5ccccc5)N4C(=O)C(NC(=O)C(C)NC)C3)c2)CCC2CCC(C(=O)NC(c3ccccc3)c3ccccc3)N2C1=O,IC50,"curve of first compound, second compound 0.00316 µM",< 0.949 nM
same,IC50,"curve of first compound, second compound 0.01 µM",< 0.949 nM
same,IC50,[1],< 0.949 nM
same,IC50,[2],< 0.949 nM
same,IC50,[3],< 0.949 nM
same,IC50,[4],< 0.949 nM
same,"viability, T/C","second compound 0.00316 µM, first compound 0.000949 µM",38.3%
same,"viability, T/C","second compound 0.00316 µM, first compound 0.003 µM",35.7%
same,"viability, T/C","second compound 0.00316 µM, first compound 0.00949 µM",23.6%
same,"viability, T/C","second compound 0.00316 µM, first compound 0.03 µM",16.3%
same,"viability, T/C","second compound 0.00316 µM, first compound 0.0949 µM",15.7%
same,"viability, T/C","second compound 0.00316 µM, first compound 0.3 µM",19.8%
same,"viability, T/C","second compound 0.01 µM, first compound 0.000949 µM",17.5%
same,"viability, T/C","second compound 0.01 µM, first compound 0.003 µM",12.1%
same,"viability, T/C","second compound 0.01 µM, first compound 0.00949 µM",11.6%
same,"viability, T/C","second compound 0.01 µM, first compound 0.03 µM",14.1%
same,"viability, T/C","second compound 0.01 µM, first compound 0.0949 µM",17.8%
same,"viability, T/C","second compound 0.01 µM, first compound 0.3 µM",16.7%
same,"viability, T/C",[5],17.1%
same,"viability, T/C",[6],12.9%
same,"viability, T/C",[7],13.1%
same,"viability, T/C",[8],17%
same,"viability, T/C",[9],19%
same,"viability, T/C",[10],20.2%
same,"viability, T/C",[11],14.6%
same,"viability, T/C",[12],14.6%
same,"viability, T/C",[13],13.7%
same,"viability, T/C",[14],14.3%
same,"viability, T/C",[15],22.9%
same,"viability, T/C",[16],22.2%
same,"viability, T/C",[17],12.9%
same,"viability, T/C",[18],16%
same,"viability, T/C",[19],14.4%
same,"viability, T/C",[20],14.5%
same,"viability, T/C",[21],22.4%
same,"viability, T/C",[22],23.7%
same,"viability, T/C",[23],13.9%
same,"viability, T/C",[24],16%
same,"viability, T/C",[25],13.9%
same,"viability, T/C",[26],16.6%
same,"viability, T/C",[27],18.5%
same,"viability, T/C",[28],22.3%
C=CC(=O)N1CCN(c2nc(=O)n(-c3c(C)ccnc3C(C)C)c3nc(-c4c(O)cccc4F)c(F)cc23)C(C)C1 (stereo unspecified),"viability, T/C",compound 0.0316 µM,92.7% and 99.7% and 107%
same,"viability, T/C",compound 0.1 µM,90.9% and 101% and 93.8%
same,"viability, T/C",compound 0.316 µM,85.3% and 99.8% and 90.6%
same,"viability, T/C",compound 1 µM,91.7% and 121% and 102%
same,"viability, T/C",compound 3.16 µM,81.7% and 103% and 114%
same,"viability, T/C",compound 10 µM,75% and 76.2% and 103%
same,IC50,curve of compound,> 10000 nM
